Target: T1, human A3 adenosine receptors (Homo sapiens, UniProt P0DMS8)
T1 construct: expressed in transfected cells; host or cells: CHO cells (membranes)
T1 sequence (P0DMS8 1-318): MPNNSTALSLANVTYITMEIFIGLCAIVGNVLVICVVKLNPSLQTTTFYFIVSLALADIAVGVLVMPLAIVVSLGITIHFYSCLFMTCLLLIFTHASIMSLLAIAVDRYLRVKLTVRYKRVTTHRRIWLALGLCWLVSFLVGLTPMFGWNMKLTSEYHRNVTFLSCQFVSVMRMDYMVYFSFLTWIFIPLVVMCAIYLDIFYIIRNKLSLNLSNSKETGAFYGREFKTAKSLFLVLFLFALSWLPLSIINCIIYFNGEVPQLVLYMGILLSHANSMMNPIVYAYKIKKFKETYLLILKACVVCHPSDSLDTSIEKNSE
Experiment: Displacement of [3H]MRE3008F20 binding at human A3 adenosine receptors expressed in CHO cells
Details: [3H]MRE3008F20 displacement, n = 3-6 (footnote mark c/d swapped), geometric mean (95% confidence limits), read-out: Ki hA3
Protocol: The human adenosine receptors have been transfected in CHO cells according with the method previously described by Klotz et al. (Naunyn-Schmied. Arch Pharm. 1998, 357: 1-9). Briefly, the cells are grown adherently and maintained in Dulbecco's Modified Eagles Medium with nutrient mixture F12 (DMEM/F12) without nucleosides, containing 10% fetal calf serum, penicillin (100 U/mL), streptomycin (100 μg/mL), L-glutamine (2 mM) and Geneticin (G418, 0.2 mg/ml) at 37° C. in 5% CO2/95% air. For membrane preparation the culture medium is removed and the cells are washed with phosphate-buffered saline and scraped off T75 flasks in ice-cold hypo tonic buffer (5 mM Tris HCl, 1 mM EDTA, pH 7.4). […]
All new synthesized compounds have been tested to evaluate their affinity to human A1, A2A, A2B and A3 adenosine receptors. […] Non-specific binding is determined in the presence of 10 μM of CHA and this is always ≦10% of the total binding. […] Non-specific binding is determined in the presence of 1 μM ZM 241385 and is about 20% of total binding. […] Bound and free radioactivity are separated by filtering the assay mixture through Whatman GF/B glass fiber filters using a Micro-Mate 196 cell harvester (Packard Instrument Co.). The filter bound radioactivity is counted on a Top Count (efficiency 57%) with Micro-Scint 20. […]

Ki, > 1000 nM:
CCCn1c(=O)c2[nH]c(-c3cc(C)n(CC(=O)Nc4ccc(C(C)CC)cc4)n3)nc2n(CCC)c1=O (stereo not drawn) [Example 12, 2-[3-(2,6-Dioxo-1,3-dipropyl-2,3,6,7-tetrahydro-1H-purin-8-yl)-5-methyl-pyrazol-1-yl]-N-(4-sec-butylphenyl)-acetamide]

Target: T2, human A2A adenosine receptors (Homo sapiens, UniProt P29274)
T2 construct: expressed in transfected cells; host or cells: CHO cells (membranes)
T2 sequence (P29274 whole entry): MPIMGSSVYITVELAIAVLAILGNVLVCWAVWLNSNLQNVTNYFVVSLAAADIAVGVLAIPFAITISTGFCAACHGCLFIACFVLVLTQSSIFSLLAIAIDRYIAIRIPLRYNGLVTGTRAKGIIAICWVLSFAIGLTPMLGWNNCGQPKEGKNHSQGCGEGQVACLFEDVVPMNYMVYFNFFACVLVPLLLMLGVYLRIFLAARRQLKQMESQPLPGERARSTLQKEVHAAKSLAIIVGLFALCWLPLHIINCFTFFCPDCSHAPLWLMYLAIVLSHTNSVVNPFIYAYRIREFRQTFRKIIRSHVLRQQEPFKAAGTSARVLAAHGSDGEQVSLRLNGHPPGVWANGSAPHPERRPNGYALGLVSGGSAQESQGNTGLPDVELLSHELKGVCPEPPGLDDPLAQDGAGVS
Experiment: Displacement of [3H]ZM241385 binding at human A2A adenosine receptors expressed in CHO cells
Details: [3H]ZM241385 displacement, n = 3-6, geometric mean (95% confidence limits), read-out: Ki hA2A
Protocol: The human adenosine receptors have been transfected in CHO cells according with the method previously described by Klotz et al. (Naunyn-Schmied. Arch Pharm. 1998, 357: 1-9). Briefly, the cells are grown adherently and maintained in Dulbecco's Modified Eagles Medium with nutrient mixture F12 (DMEM/F12) without nucleosides, containing 10% fetal calf serum, penicillin (100 U/mL), streptomycin (100 μg/mL), L-glutamine (2 mM) and Geneticin (G418, 0.2 mg/ml) at 37° C. in 5% CO2/95% air. For membrane preparation the culture medium is removed and the cells are washed with phosphate-buffered saline and scraped off T75 flasks in ice-cold hypo tonic buffer (5 mM Tris HCl, 1 mM EDTA, pH 7.4). The cell suspension is homogenized with Polytron, the homogenate is spun for 10 min at 1000×g and the supernatant is then centrifuged for 30 min at 100,000×g. The membrane pellet is suspended in 50 mM Tris HCl buffer (pH 7.4) for A1 adenosine receptors, in 50 mM Tris HCl, 10 mM MgCl2 (pH 7.4) for A2A adenosine receptors, in 50 mM Tris HCl, 10 mM MgCl2, 1 mM EDTA (pH 7.4) for A2B and A3 adenosine receptors.
All new synthesized compounds have been tested to evaluate their affinity to human A1, A2A, A2B and A3 adenosine receptors. Displacement experiments of [^3H]-DPCPX to CHO cells transfected with the human recombinant A1 adenosine receptors are performed for 120 min at 25° C. incubating diluted membranes (50 μg of protein/assay) and at least 6-8 different concentrations of examined antagonists (Varani et al., Mol. Pharmacol., 2000, 57: 968-975). Non-specific binding is determined in the presence of 10 μM of CHA and this is always ≦10% of the total binding. Binding of [^3H]-ZM 241385 to CHO cells transfected with the human recombinant A2A adenosine receptors is performed using a suspension of membranes (50 μg of protein/assay) and at least 6-8 different concentrations of studied antagonists for an incubation time of 60 min at 4° C. Non-specific binding is determined in the presence of 1 μM ZM 241385 and is about 20% of total binding. Competition binding experiments of [^3H]-MRE 2029F20 to CHO cells transfected with the human recombinant A2B adenosine receptors are carried out incubating for 120 min at 4° C. diluted membranes (50 μg of protein/assay) and at least 6-8 different concentrations of examined compounds. Non-specific binding is defined as binding in the presence of 1 μM MRE 3029F20 and is about 25% of total binding. Competition binding experiments of [^3H]-MRE 3008F20 to CHO cells transfected with the human recombinant A3 adenosine receptors^5 are carried out incubating for 120 min at 4° C. diluted membranes (50 μg of protein/assay) and at least 6-8 different concentrations of examined ligands. Non-specific binding is defined as binding in the presence of 1 μM MRE 3008F20 and is about 25% of total binding. Bound and free radioactivity are separated by filtering the assay mixture through Whatman GF/B glass fiber filters using a Micro-Mate 196 cell harvester (Packard Instrument Co.). The filter bound radioactivity is counted on a Top Count (efficiency 57%) with Micro-Scint 20.
The protein concentration is determined according to a Bio-Rad method (Bradford, Anal Biochem. 1976, 72: 248-254) with bovine albumin as a standard reference. Inhibitory binding constant, Ki, values are calculated from those of IC50 according to Cheng & Prusoff equation (Biochem. Pharmacol 1973, 22: 3099-3108): Ki=IC50/(1+[C*]/KD*) where [C*] is the concentration of the radioligand and KD* its dissociation constant. A weighted non linear least-squares curve fitting program LIGAND (Munson et al., Anal. Biochem 1980, 107: 220-239) is used for computer analysis of inhibition experiments Data are expressed as geometric mean with 95% confidence limits in parentheses. Examples of Animal Models

Ki, > 1000 nM:
CCCn1c(=O)c2[nH]c(-c3cc(C)n(CC(=O)Nc4ccccc4)n3)nc2n(CCC)c1=O [Example 1, 2-[3-(2,6-Dioxo-1,3-dipropyl-2,3,6,7-tetrahydro-1H-purin-8-yl)-5-methyl-pyrazol-1-yl]-N-phenyl-acetamide]
CCCn1c(=O)c2[nH]c(-c3cc(C)n(CC(=O)Nc4ccc(I)cc4)n3)nc2n(CCC)c1=O [Example 2, 2-[3-(2,6-Dioxo-1,3-dipropyl-2,3,6,7-tetrahydro-1H-purin-8-yl)-5-methyl-pyrazol-1-yl]-N-(4-iodophenyl)-acetamide]
CCCn1c(=O)c2[nH]c(-c3cc(C)n(CC(=O)Nc4ccc(F)cc4)n3)nc2n(CCC)c1=O [Example 5, 2-[3-(2,6-Dioxo-1,3-dipropyl-2,3,6,7-tetrahydro-1H-purin-8-yl)-5-methyl-pyrazol-1-yl]-N-(4-fluoro-phenyl)-acetamide]
CCCn1c(=O)c2[nH]c(-c3cc(C)n(CC(=O)Nc4ccc(OC)cc4)n3)nc2n(CCC)c1=O [Example 6, 2-[3-(2,6-Dioxo-1,3-dipropyl-2,3,6,7-tetrahydro-1H-purin-8-yl)-5-methyl-pyrazol-1-yl]-N-(4-methoxyphenyl)-acetamide]
CCCn1c(=O)c2[nH]c(-c3cc(C)n(CC(=O)Nc4ccc(C)c(C)c4)n3)nc2n(CCC)c1=O [Example 7, 2-[3-(2,6-Dioxo-1,3-dipropyl-2,3,6,7-tetrahydro-1H-purin-8-yl)-5-methyl-pyrazol-1-yl]-N-(3,4-dimethylphenyl)-acetamide]
CCCn1c(=O)c2[nH]c(-c3cc(C)n(CC(=O)Nc4ccc(OC)c(OC)c4)n3)nc2n(CCC)c1=O [Example 8, 2-[3-(2,6-Dioxo-1,3-dipropyl-2,3,6,7-tetrahydro-1H-purin-8-yl)-5-methyl-pyrazol-1-yl]-N-(3,4-dimethoxyphenyl)-acetamide]
CCCn1c(=O)c2[nH]c(-c3ccn(CC(=O)Nc4ccc(Cl)cc4)n3)nc2n(CCC)c1=O [Example 10, 2-[3-(2,6-Dioxo-1,3-dipropyl-2,3,6,7-tetrahydro-1H-purin-8-yl)-pyrazol-1-yl]-N-(4-chloro-phenyl)-acetamide]
CCCn1c(=O)c2[nH]c(-c3cc(C)n(CC(=O)Nc4ccc(C(C)CC)cc4)n3)nc2n(CCC)c1=O (stereo not drawn) [Example 12, 2-[3-(2,6-Dioxo-1,3-dipropyl-2,3,6,7-tetrahydro-1H-purin-8-yl)-5-methyl-pyrazol-1-yl]-N-(4-sec-butylphenyl)-acetamide]
CCCn1c(=O)c2[nH]c(-c3cc(C)n(CC(=O)Nc4cccc(OC)c4)n3)nc2n(CCC)c1=O [Example 14, 2-[3-(2,6-Dioxo-1,3-dipropyl-2,3,6,7-tetrahydro-1H-purin-8-yl)-5-methyl-pyrazol-1-yl]-N-(3-methoxylphenyl)-acetamide]
CCCn1c(=O)c2[nH]c(-c3cc(C)n(CC(=O)Nc4cccc(Cl)c4)n3)nc2n(CCC)c1=O [Example 15, 2-[3-(2,6-Dioxo-1,3-dipropyl-2,3,6,7-tetrahydro-1H-purin-8-yl)-5-methyl-pyrazol-1-yl]-N-(3-chlorophenyl)-acetamide]
CCCn1c(=O)c2[nH]c(-c3cc(C)n(CC(=O)Nc4ccc(Cl)c(Cl)c4)n3)nc2n(CCC)c1=O [Example 16, 2-[3-(2,6-Dioxo-1,3-dipropyl-2,3,6,7-tetrahydro-1H-purin-8-yl)-5-methyl-pyrazol-1-yl]-N-(3,4-dichlorophenyl)-acetamide]
CCCn1c(=O)c2[nH]c(-c3cc(C)n(CC(=O)Nc4ccc(C)cc4)n3)nc2n(CCC)c1=O [Example 17, 2-[3-(2,6-Dioxo-1,3-dipropyl-2,3,6,7-tetrahydro-1H-purin-8-yl)-5-methyl-pyrazol-1-yl]-N-p-tolyl-acetamide]
CCCn1c(=O)c2[nH]c(-c3nn(CC(=O)Nc4ccc(Cl)cc4)c(C)c3Cl)nc2n(CCC)c1=O [Example 18, 2-[4-Chloro-3-(2,6-dioxo-1,3-dipropyl-2,3,6,7-tetrahydro-1H-purin-8-yl)-5-methyl-pyrazol-1-yl]-N-(4-chlorophenyl)-acetamide]
CCCn1c(=O)c2[nH]c(-c3nn(CC(=O)Nc4ccc(Cl)cc4)c(C)c3Br)nc2n(CCC)c1=O [Example 19, 2-[4-Bromo-3-(2,6-dioxo-1,3-dipropyl-2,3,6,7-tetrahydro-1H-purin-8-yl)-5-methyl-pyrazol-1-yl]-N-(4-chlorophenyl)-acetamide]

Source: patent publication US7767685B2, “Adenosine A2B receptor antagonists” (King Pharmaceuticals Research and Development, Inc., priority 2006, dated 2010)
